Values of other authors as cited in US20240148714A1, “Triple Negative Breast Cancer Treatment Method” (Exelixis, Inc., priority 2016, published 2024).

Test system: mTNBC
Settings: bevacizumab and onartuzumab combined, with paclitaxel; mTNBC patients without previous paclitaxel for metastatic disease; cited from earlier work

Substance	clinical benefit
bevacizumab	no clinical benefit
onartuzumab	no clinical benefit
